Test results as given in patent US4895869A, “Phenylene, furyl, and thienyl leukotriene B4 analogues” (C. D. Searle & Co., priority 1988, dated 1990).
pIC50: −log10 of the molar value.

Columns and labels:
[1] = system: LTB4 induced degranulation of human neutrophils; experiment: Human Neutrophil Degranulation Assay (LTB4 induced myeloperoxidase release); type: cell-based; settings: cytochalasin B, LTB4 5×10^-8 M, read-out: Inhibition of LTB4 Induced Neutrophil Degranulation IC50
Source text: (§1) For use in both the "LTB4 receptor Binding Assay" and the "human Neutrophil Degranulation Assay", neutrophils were purified from venous blood of normal human donors using standard techniques of dextran sedimentation, centrifugation on Histopaque® (density solution) and hypotonic lysis of erythrocytes (Boyum, A., Isolation of Leukocytes From Human Blood: Further Observations. Scand. J. Lab. Clin. Inves. 21 (Suppl. 97): 31, 1968). The purity of isolated neutrophils was ≥95%.
LTB4 induced neutrophil degranulation was determined by measuring the release of myeloperoxidase activity into the incubation medium. Neutrophils (3×10^6) in 1 ml HBSS solution were preincubated with cytochalasin B(5 μg) at 37° C. for 5 minutes, followed by preincubation with test compounds for 7 minutes. Neutrophilsere then incubated for 2 to 20 minutes with either LTB4 (5 ×10^-8 M) or the chemotactic peptide f-met-leu-phe (5×10^-6 M) to induce degranulation. Following incubation, samples were centrifuged and myleoperoxidase was extracted from the cell pellets by sonication in phosphate buffer containing 0.4% Triton X-100. Triton X-100 was also added to the supernatents to a concentration of 0.4%. The supernatants and the pellet extracts were then assayed spectrophotometrically for myeloperoxide activity by determining the rate of decomposition of H2 O2 with o-dianisidine as hydrogen donor as described by Renlund D. G., MacFarlane J. L., Christensen, R. D., Lynch R. E., and Rothstein, G., A Quantitative And Sensitive Method For Measurement Of Mveloperoxidase, Clinical Research 28:75A, 1980). Myeloperoxidase activity released into the supernatant was expressed as the percent of the average total activity (pellet plus supernatant).
The inhibition of LTB4 induced neutrophil degranulation was determined for representative compounds of this invention and their corresponding IC50 values were calculated (Table 1). The concentration of a compound which inhibited LTB4 induced neutrophil degranulation by 50% was determined to be its IC50 value.

LTB4 receptor = biological target: T1, LTB4 receptor (Homo sapiens, UniProt Q15722); experiment: LTB4 Receptor Binding Assay (inhibition of specific binding of (3H) LTB4 to human neutrophils); settings: 0.6 nM (3H) LTB4, 0° C., 45 minutes; for pIC50: pH 7.4
T1 construct: neutrophils were purified from venous blood of normal human donors; endogenous in cells; host or cells: neutrophils purified from venous blood of normal human donors (purity at least 95%)
T1 sequence (Q15722 whole entry): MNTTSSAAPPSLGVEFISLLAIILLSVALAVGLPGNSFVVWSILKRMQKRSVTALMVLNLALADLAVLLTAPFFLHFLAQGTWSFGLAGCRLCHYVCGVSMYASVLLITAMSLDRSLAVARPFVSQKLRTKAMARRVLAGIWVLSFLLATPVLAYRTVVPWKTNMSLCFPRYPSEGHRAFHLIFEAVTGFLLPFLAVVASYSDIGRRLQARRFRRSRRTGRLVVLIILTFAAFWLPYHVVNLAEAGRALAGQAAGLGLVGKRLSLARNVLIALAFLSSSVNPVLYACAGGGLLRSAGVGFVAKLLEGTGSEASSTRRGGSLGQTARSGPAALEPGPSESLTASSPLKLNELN
Source text: as §1
Neutrophils (4-6×10^6) in 1 ml of Hanks balanced salt solution containing 10 mM Hepes Buffer (HBSS), pH 7.4 and 30 μM nordihydroguaiaretic acid were incubated with 0.6 nM (^3 H) LTB4 in the presence or absence of test compounds. The incubation was carried out at 0° C. for 45 minutes and terminated by adding 5 ml of ice cold HBSS followed by rapid filtration of incubation mixture under vacuum through GF/C glass fiber filters. The filters were further washed with 10 ml HBSS and their radioactivity was determined. Specific binding was defined as the difference between total binding and nonspecific binding which was not displaced by 10-^7 M unlabeled LTB4.
The inhibition of specific binding was determined for representatives compounds of this invention, and the corresponding IC50 values calculated (Table 1). An IC50 is the concentration of the compound of interest which will inhibit the binding of LTB4 by 50% of the LTB4 receptors. For example, for the compound of Example 7, the IC50 was determined to be approximately

| pIC50 [1] | Inhibition of Receptor Binding of LTB4, % inhibition (LTB4 receptor; at 10 μM) | pIC50 (LTB4 receptor) | Substance |
| --- | --- | --- | --- |
| 5.06 | 20% | – | 7-[2-[5-(1-hydroxynonyl)thienyl]-5-hydroxy-6Z-heptenoic acid, lithium salt [Example 23] |
| 6.19 | – | 6.00 | Methyl 7-[4-(hydroxynonyl)phenyl]-5-hydroxy-6heptynoate [Example 11] |
| 5.74 | – | 5.30 | 7-[2-[5-(1-hydroxynonyl)thienyl]-5-hydroxy-6Z-heptynoic acid, lithium salt [Example 22] |
